Literature values in US20040204467A1, “Use of 5HT3-receptor-antagonists” (priority 1998, published 2004).

Tests used:
patients with CFS = conditions: after an acute application on patients with CFS
CFS patients = conditions: daily dose of 20 mg; also in patients with accompanying symptoms of depression

Row | SMILES | rise of prolactin in the serum (patients with CFS) | result of treatment of CFS (CFS patients)
1 | CCN[C@@H](C)Cc1cccc(C(F)(F)F)c1 [D-Feufluoroamin] | significantly increased rise of prolactin | –
2 | CNCCC(Oc1ccc(C(F)(F)F)cc1)c1ccccc1 (centres unmarked) [fluoxetin] | – | negative in result
